Experimental data as given in patent US20200009105A1, “PROSTACYCLIN, PROSTACYCLIN ANALOGS, AND METHODS OF TREATING OR PREVENTING REJECTION OF SOLID ORGAN TRANSPLANTS” (VANDERBILT UNIVERSITY, priority 2017, published 2020).
Several values for one entry are separate records, joined by “and”; a condition that tells them apart may be missing. Identical values can stand only once. Values belong to the compound of their own block, whether it stands above or below them.

Legend:
[1] = oral administration; cited from earlier work
[2] = test system: lung DCs; details: mouse model; cited from earlier work
[3] = test system: Th2 cells; details: in vitro, Th2 cells differentiated under IL-4 and anti-IFN-γ; cited from earlier work
[4] = test system: DCs; details: cited from earlier work
[5] = in vivo; cited from earlier work
[6] = target: IP (Homo sapiens, UniProt P43119); details: compared with treprostinil; cited from earlier work
IP, sequence (P43119 whole entry): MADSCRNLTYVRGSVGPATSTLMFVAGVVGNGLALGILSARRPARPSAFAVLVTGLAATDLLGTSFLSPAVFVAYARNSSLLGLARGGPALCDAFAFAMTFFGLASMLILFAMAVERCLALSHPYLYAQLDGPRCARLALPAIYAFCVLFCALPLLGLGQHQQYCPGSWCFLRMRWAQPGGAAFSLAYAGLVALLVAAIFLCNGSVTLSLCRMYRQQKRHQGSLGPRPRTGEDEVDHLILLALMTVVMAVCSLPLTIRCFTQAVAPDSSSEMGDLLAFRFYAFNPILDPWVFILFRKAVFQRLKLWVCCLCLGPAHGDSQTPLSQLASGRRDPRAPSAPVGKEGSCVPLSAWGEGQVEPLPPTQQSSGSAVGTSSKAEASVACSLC

[7] = cited from earlier work
[8] = target: PGE2 receptor EP2 (Homo sapiens, UniProt P43116); details: cited from earlier work
PGE2 receptor EP2, sequence (P43116 whole entry): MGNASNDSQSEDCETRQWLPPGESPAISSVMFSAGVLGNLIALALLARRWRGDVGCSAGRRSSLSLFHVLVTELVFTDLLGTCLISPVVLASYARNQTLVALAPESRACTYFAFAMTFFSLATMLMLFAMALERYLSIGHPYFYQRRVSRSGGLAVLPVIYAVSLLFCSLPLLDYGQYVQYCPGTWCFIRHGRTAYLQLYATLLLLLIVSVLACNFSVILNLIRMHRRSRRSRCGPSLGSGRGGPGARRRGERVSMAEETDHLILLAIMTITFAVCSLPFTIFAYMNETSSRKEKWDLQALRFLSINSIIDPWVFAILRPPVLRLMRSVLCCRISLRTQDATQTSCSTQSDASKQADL

[9] = rat, chronic administration; cited from earlier work
[10] = test system: CD4^+ T cells; test: CD4+ T cell proliferation (CFSE dilution) and live cell counting; type: cell-based, mouse; details: WT CD4+ T cells, 1000 nM, IL-33, day 3
Experimental: (§1) CD4^+ T cells were purified from the splenic cells of WT, or IP KO mice by a mouse naive CD4^+ T cell isolation kit II (Miltenyi Biotec, Auburn, Calif.). The purified CD4^+CD62L^+ T cell population contains 97.5% CD3^+CD4^+ cells as determined by flow cytometry. The purified CD4 T cells were resuspended at 1×10^6 cells/ml in RPMI 1640 medium (Mediatech, Herndon, Va.) supplemented with 10% FBS (HyClone, Logan, Utah), 4 mM of L-glutamine, 1 mM of sodium pyruvate, […] of 2-ME, 10 mM of HEPES, 100 U/ml penicillin, and 100 μg/ml streptomycin. […]
(§2) At day 3 of cell culture, the cells were harvested for flow cytometric staining with fluorochrome-labeled antibodies against CD4^+ (Biolegend, San Diego, Calif.), Gata3 (Affymetrix, Santa Clara, Calif.), CD25 (BD Biosciences, San Jose, Calif.), or TSLPR (R&D Systems, Minneapolis, Minn.). An LSR II flow cytometer (BD Biosciences) was used for flow cytometry and the data were analyzed with FlowJo software (FlowJo, LLC, Ashland Oreg.). For cell proliferation assay, CFSE intensity of the cultured cells was determined at day 3 by flow cytometry. Cell division index was calculated with FlowJo software. […]
To further analyze the effect of cicaprost on cell proliferation, naïve CD4^+ T cells were CFSE-labeled, activated with anti-CD3 and anti-CD28, and treated with IL-33 plus either vehicle or cicaprost. Cell proliferation was determined by CFSE dilution.

[11] = test system: NFAT; test: NFAT function assay (NFAT-luciferase reporter lentiviral vector); type: cell-based, mouse; details: WT cells, after 3 days of cell culture
Experimental: To determine NFAT activation, a Cignal Lenti NFAT reporter (luc) kit (Qiagen, Hilden, Germany), was used to transduce naïve CD4^+ T cells. CD4^+ T cells (10^5) of WT and IP KO mice were transduced with 2×10^5 transduction units of lentiviral vector (MOI=2) and 30 μg transduction reagent in 60 μl of transduction medium without antibiotics for 24 h in 96 well plates coated with anti-CD3 and anti-CD28. The cells were then pooled, washed, seeded and treated with IL-33 plus either cicaprost or vehicle. After culture for 2 more days in the same plates, the cells were harvested and the cell lysate was used for luciferase assay with Luciferase Assay System with Reporter Lysis Buffer (Promega, Madison, Wis.). The luciferase activity indicates the levels of NFAT activation. To determine whether the suppressive effect of cicaprost on IL-2 production is associated with the inhibition of NFAT, a transcription factor that binds to the IL-2 gene promoter to activate IL-2 gene expression, an NFAT function assay was performed with an NFAT-luciferase reporter lentiviral vector system.

[12] = test system: CD25; test: CD25 surface expression on CD4+ T cells by flow cytometry; type: cell-based, mouse; details: 3 days, vs vehicle control
Experimental: (§3) CD4^+ T cells were purified from the splenic cells of WT, or IP KO mice by a mouse naive CD4^+ T cell isolation kit II (Miltenyi Biotec, Auburn, Calif.). The purified CD4^+CD62L^+ T cell population contains 97.5% CD3^+CD4^+ cells as determined by flow cytometry. The purified CD4 T cells were resuspended at 1×10^6 cells/ml in RPMI 1640 medium (Mediatech, Herndon, Va.) supplemented with 10% FBS (HyClone, Logan, Utah), 4 mM of L-glutamine, 1 mM of sodium pyruvate, […] of 2-ME, 10 mM of HEPES, 100 U/ml penicillin, and 100 μg/ml streptomycin. The cells were stimulated with plate-bound anti-CD3 (10 μg/ml) and anti-CD28 (2 μg/ml; BD Biosciences, San Diego, Calif.) in 96-well flat-bottom plates and treated with IL-33 (20 ng/ml) plus cicaprost (a generous gift provided by Dr. Manuela Huebner, Bayer HealthCare, Berlin, Germany) at various concentrations or vehicle (water) control. The cells were cultured for 3 days. For T cell proliferation experiments, naive CD4^+ T cells were stained with 1 μM CFSE before cell culture and cicaprost treatment.
(§4) At day 3 of cell culture, the cells were harvested for flow cytometric staining with fluorochrome-labeled antibodies against CD4^+ (Biolegend, San Diego, Calif.), Gata3 (Affymetrix, Santa Clara, Calif.), CD25 (BD Biosciences, San Jose, Calif.), or TSLPR (R&D Systems, Minneapolis, Minn.). An LSR II flow cytometer (BD Biosciences) was used for flow cytometry and the data were analyzed with FlowJo software (FlowJo, LLC, Ashland Oreg.). For cell proliferation assay, CFSE intensity of the cultured cells was determined at day 3 by flow cytometry. Cell division index was calculated with FlowJo software. At day 3, the cells were stained with the cell viability dye 4,6-diamidino-2-phenylindole (DAPI), and 123count™ eBeads (Affymetrix) were added to the cell solution for live cell counting by flow cytometry.
(§5) To determine whether cicaprost attenuates the IL-2 signaling pathway, CD4^+ T cells activated and treated with either cicaprost or vehicle for 3 days were stained with fluorochrome-labeled anti-CD25 antibody and analyzed by flow cytometry.

[13] = test system: CD4^+ T cells; test: IL-2 production by CD4+ T cells (ELISA, day 2 supernatant); type: cell-based, mouse; details: WT CD4+ T cells, IL-33, day 2
Experimental: as §1
IL-2, IL-4, IL-5, and IL-13 in the culture supernatant were measured by DuoSet ELISA kits from R&D Systems according to the manufacturer's instructions. Phosphorylated STAT5 (p-STAT5) was measured by phosphor-STAT5A/B (Tyr694/Tyr699) InstantOne™ ELISA kit (Affymetrixes). […]
In vitro activation of mouse naïve CD4^+ T cells results in the expression of IL-2, a growth factor critical for cell survival and proliferation (19). To investigate whether cicaprost inhibits IL-33-induced type 2 cytokine production by suppressing CD4^+ T cell IL-2 production and cell activation, IL-2 levels were measured in the culture supernatant.

[14] = test system: STAT5; test: Phosphorylated STAT5 in CD4+ T cell lysate (ELISA); type: cell-based, mouse; details: WT cells, 2 days, IL-33
Experimental: (§6) Cell culture supernatant was collected at day 2 for IL-2 measurement because IL-2 production by activated CD4^+ T cells peak at day 2 (unpublished data). At day 3, the culture supernatant was harvested for IL-4, IL-5 and IL-13 measurement. At day 2, the cells were harvested and the cell lysate was prepared for p-STAT5 measurement.
(§7) IL-2, IL-4, IL-5, and IL-13 in the culture supernatant were measured by DuoSet ELISA kits from R&D Systems according to the manufacturer's instructions. Phosphorylated STAT5 (p-STAT5) was measured by phosphor-STAT5A/B (Tyr694/Tyr699) InstantOne™ ELISA kit (Affymetrixes). Measurements below the limit of detection were assigned a value of half the lower limit of detection for purposes of statistical analyses.
Binding of IL-2 to IL-2 receptor leads to the activation of JAK1 and JAK3 and the activation of the downstream transcription factors STAT5 (21). To test whether cicaprost downregulates IL-2 receptor signaling, the levels of phosphorylated STAT5 were measured in CD4^+ T cells harvested 2 days after the cell activation and treatment with IL-33 plus either vehicle or cicaprost.

[15] = test system: CD4^+ T cells; test: Intracellular cytokine staining for flow cytometry of IL-33-stimulated T cells; type: cell-based, mouse; details: in the presence of IL-33, 3 days, vs vehicle
Experimental: as §1, §2

[16] = test system: TSLPR; test: TSLPR expression on T cells by flow cytometry; type: cell-based, mouse; details: WT or IP KO T cell culture in the presence of IL-33 (data not shown)
Experimental: as §4, §5

[17] = test system: type 2 innate lymphoid cells (ILC2); details: cited from earlier work
[18] = test system: Gata3; test: Gata3 expression in CD4+ T cells by flow cytometry; type: cell-based, mouse; details: WT mice, 1000 nM, IL-33, 3 days
Experimental: as §3, §2
The differentiation of naïve CD4^+ T cells into Th2 cells under IL-4 culture conditions requires the expression of the transcription factor Gata3 (18). To investigate whether Gata3 plays a role in the inhibitory effect of cicaprost on IL-33-induced type 2 cytokine production, the expression of Gata3 in CD4^+ T cells activated with IL-33 and treated with cicaprost at various concentrations or vehicle for 3 days was determined. […]

[19] = test system: ILC2; details: WT mice; cited from earlier work
[20] = test system: naïve CD4^+ T cells of WT and IP KO mice; test: IL-33-induced type 2 cytokine production by naive CD4+ T cells (ELISA of culture supernatant); type: cell-based, mouse
Experimental: as §3, §6, §7
To determine the effect of PGI2 signaling on IL-33-induced Th2 differentiation, naïve CD4^+ T cells of WT and IP KO mice, both on BALB/c background, were activated with anti-CD3 and anti-CD28 either with or without IL-33 and treated with cicaprost or vehicle for 3 days.

[21] = IP KO CD4+ T cells, anti-CD3/anti-CD28 + IL-33, 3 days
[22] = WT CD4+ T cells, anti-CD3/anti-CD28 + IL-33, 3 days
[23] = in the presence of either 10 ng/ml or 50 ng/ml exogenous IL-2, IL-33, 3 days

Structure (SMILES): CC#CCC(C)[C@H](O)/C=C/[C@@H]1[C@H]2C/C(=C/CCCC(=O)O)C[C@H]2C[C@H]1O (stereo partly drawn) [Iloprost]
iloprost reaching the systemic circulation [1]: less than 20% | maturation and migration of lung DCs to the mediastinal LNs [2]: inhibited | production of effector cytokine IL-4 [3]: inhibited | production of effector cytokine IL-5 [3]: inhibited | LPS-induced expression of CD40 by DCs [4]: suppressed | LPS-induced expression of CD86 by DCs [4]: suppressed | LPS-induced expression of MHC class II molecules by DCs [4]: suppressed | ability of DCs to stimulate antigen-specific CD4 T cell proliferation [4]: inhibited | ability of DCs to stimulate production of the Th2 cytokine IL-5 [4]: inhibited | ability of DCs to stimulate production of the Th2 cytokine IL-13 [4]: inhibited | safety of administration to pulmonary hypertension patients [5]: safe | specificity for IP [6]: greater specificity for IP than treprostinil | half-life [7]: 13 min

Structure (SMILES): CCCCC[C@H](O)/C=C/[C@@H]1[C@H]2C/C(=C/CCCC(=O)O)O[C@H]2C[C@H]1O [PGI2, prostacyclin]
half-life (biologic half-life) [7]: 46 seconds and 60-90 seconds

Structure (SMILES): CCCCC[C@H](O)CC[C@@H]1[C@H]2Cc3cccc(OCC(=O)O)c3C[C@H]2C[C@H]1O [Treprostinil]
activation of PGE2 receptor EP2 [8]: also activated | degree of experimentally-induced pulmonary hypertension [9]: decreasing | safety of administration to pulmonary hypertension patients [5]: safely used | half-life compared with epoprostenol [7]: longer

NFAT function (luciferase activity) [11]: significantly suppressed
Structure (SMILES): CCC#CC[C@H](C)[C@H](O)C#C[C@@H]1[C@H]2C/C(=C/COCC(=O)O)C[C@H]2C[C@H]1O [cicaprost]
cell division index [10]: significantly decreased | total number of live cells [10]: significantly decreased | CD25 mean fluorescence intensity [12]: dose-dependently decreased | percentages of CD25 expressing cells [12]: dose-dependently decreased | total numbers of CD25 expressing cells [12]: dose-dependently decreased | IL-2 production [13]: dose-dependently suppressed | STAT5 phosphorylation [14]: dose-dependently attenuated | total numbers of IL-4+ T cells [15]: dose-dependently decreased | total numbers of IL-13+ T cells [15]: dose-dependently decreased | production of effector cytokine IL-4 [3]: inhibited | production of effector cytokine IL-5 [3]: inhibited | TSLPR MFI [16]: did not change | percentages of TSLPR expressing cells [16]: did not change | IL-33-induced cytokine responses of ILC2 [17]: inhibited | LPS-induced expression of CD40 by DCs [4]: suppressed | LPS-induced expression of CD86 by DCs [4]: suppressed | LPS-induced expression of MHC class II molecules by DCs [4]: suppressed | ability of DCs to stimulate antigen-specific CD4 T cell proliferation [4]: inhibited | ability of DCs to stimulate production of the Th2 cytokine IL-5 [4]: inhibited | ability of DCs to stimulate production of the Th2 cytokine IL-13 [4]: inhibited | Gata3 mean fluorescence intensity [18]: significantly decreased | percentages of Gata3-expressing CD4+ T cells [18]: significantly decreased | total number of Gata3-expressing CD4+ T cells [18]: significantly decreased | ILC2 response [19]: inhibited | IL-4 production [20, 21]: did not change | IL-5 production [20, 21]: did not change | IL-13 production [20, 21]: did not change | IL-4 production [20, 22]: dose dependently decreased | IL-5 production [20, 22]: dose dependently decreased | IL-13 production [20, 22]: dose dependently decreased | IL-5 production [20, 23]: still significantly inhibited | IL-13 production [20, 23]: still significantly inhibited
